For the test, the system named is CD11c^− microglia. As to the kind of experiment: Apoptotic neuron (AN) uptake and CD11c^- to CD11c^+ differentiation of microglia with αVβ3 / TAM receptor inhibitors. Type of test: cell-based, mouse. Particulars: P5 B6-WT CD11c^− microglia, 72 h with pHrodo-labeled ANs 1:1; cilengitide 10 μM, LDC1267 1 μM. The source says: (A) Brain single cell suspensions of 9-mo old WT mice were generated for validation of microglial CD11c expression by flow cytometry. We first gate on CD11b^+ cells from single/live cells followed by subsequent gating of CD11b^+CD45^low populations as potential microglia. […] In contrast, CCR2 but not Tmem 119 expression is detected in the CD11b^+CD45^high fraction, i.e., putative macrophage populations. Analysis of the CD11b^+CD45^low microglial population using FMO negative controls for these FACS plots confirms specificity. […] (B) The proportion of CD11c^+ microglia in C57BL/6 (B6) mice during early development and normal aging (n=3) was determined by flow cytometry analysis. CD11c^+ microglia were initially present at late embryonic day (E18.5), peaked at early postanal day (P5) and gradually declined to marginal levels in young adulthood (3-mon) followed by re-emergence and further expansion during aging. (C) CD11c^− microglia were isolated from P5 B6-WT mice by negative section with anti-CD11c magnetic beads (purity >99%) followed by co-incubation×72 h in the presence or absence of pHrodo fluorescent dye-labeled apoptotic neurons (ANs) at a 1:1 ratio. After 72 h incubation, 23% of total CD11c^− microglia had ingested ANs (AN^+), of which 77.4% of these AN^+ microglia were CD11c^+. […] Expression of CD11c was assessed in CD86^+ or MHC II^+ activated microglia. […]

The values below come from patent publication US20250381277A1, “COMPOSITIONS AND METHODS FOR TREATMENT OF NEUROLOGICAL DISORDERS” (Dana-Farber Cancer Institute, Inc., priority 2022, published 2025).

The structures appear in SMILES notation.

On to `CC(C)[C@H]1C(=O)N[C@@H](CCCN=C(N)N)C(=O)NCC(=O)N[C@@H](CC(=O)O)C(=O)N[C@H](Cc2ccccc2)C(=O)N1C` [Cilengitide], for which the “reduction of AN uptake by CD11c^− microglia” value is “about 50%”.
